# The supplement of paper PMC10307832
# What was measured:
# Assay in all cases: relative viability (nuclei count vs DMSO), 5 days (fraction); higher = more cells survive
# COR-L 105 = tested on: COR-L 105
# Procedure, shortened: (§1)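 Medians of duplicate plates are given as relative viability. That measure is the nuclei count in treated wells divided by the count in vehicle wells. Counts were taken on 4× images of lung cancer cell lines in 1536-well plates, 5 days after pin-tool dosing the day after seeding with one drug alone or a fixed anchor-drug dose plus five library-drug doses (not always all listed) in √10 steps.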
# LCLC-103H = tested on: LCLC-103H
# Procedure, shortened: as §1
# LK-2 = tested on: LK-2
# Procedure, shortened: as §1
# NCI-H1355 = tested on: NCI-H1355
# Procedure, shortened: as §1
# NCI-H1648 = tested on: NCI-H1648
# Procedure, shortened: as §1
# NCI-H1666 = tested on: NCI-H1666
# Procedure, shortened: as §1
# NCI-H520 = tested on: NCI-H520
# Procedure, shortened: as §1
# NCI-H522 = tested on: NCI-H522
# Procedure, shortened: as §1
structure (smiles),measurement,setting,value
CC(=O)O[C@@]12CO[C@@H]1C[C@H](O)[C@@]1(C)C(=O)[C@H](O)C3=C(C)[C@@H](OC(=O)[C@H](O)[C@@H](NC(=O)OC(C)(C)C)c4ccccc4)C[C@@](O)([C@@H](OC(=O)c4ccccc4)[C@H]21)C3(C)C [Docetaxel] + CC(=O)Nc1cccc(-n2c(=O)n(C3CC3)c(=O)c3c(Nc4ccc(I)cc4F)n(C)c(=O)c(C)c32)c1 [Trametinib] (partner 0.02 µM),relative viability,COR-L 105; first compound 0.0002 µM,0.399
same,relative viability,COR-L 105; first compound 0.000632 µM,0.445
same,relative viability,COR-L 105; first compound 0.002 µM,0.428
same,relative viability,COR-L 105; first compound 0.006325 µM,0.339
same,relative viability,COR-L 105; first compound 0.02 µM,0.392
same,relative viability,LCLC-103H; first compound 0.0002 µM,0.675
same,relative viability,LCLC-103H; first compound 0.000632 µM,0.697
same,relative viability,LCLC-103H; first compound 0.002 µM,0.727
same,relative viability,LCLC-103H; first compound 0.006325 µM,0.782
same,relative viability,LCLC-103H; first compound 0.02 µM,0.592
same,relative viability,LK-2; first compound 0.0002 µM,0.683
same,relative viability,LK-2; first compound 0.000632 µM,0.528
same,relative viability,LK-2; first compound 0.002 µM,0.304
same,relative viability,LK-2; first compound 0.006325 µM,0.187
same,relative viability,LK-2; first compound 0.02 µM,0.136
same,relative viability,NCI-H1355; first compound 0.0002 µM,0.384
same,relative viability,NCI-H1355; first compound 0.000632 µM,0.441
same,relative viability,NCI-H1355; first compound 0.002 µM,0.262
same,relative viability,NCI-H1355; first compound 0.006325 µM,0.26
same,relative viability,NCI-H1355; first compound 0.02 µM,0.183
same,relative viability,NCI-H1648; first compound 0.0002 µM,0.435
same,relative viability,NCI-H1648; first compound 0.000632 µM,0.456
same,relative viability,NCI-H1648; first compound 0.002 µM,0.367
same,relative viability,NCI-H1648; first compound 0.006325 µM,0.288
same,relative viability,NCI-H1648; first compound 0.02 µM,0.193
same,relative viability,NCI-H1666; first compound 0.0002 µM,0.846
same,relative viability,NCI-H1666; first compound 0.000632 µM,0.695
same,relative viability,NCI-H1666; first compound 0.002 µM,0.645
same,relative viability,NCI-H1666; first compound 0.006325 µM,0.771
same,relative viability,NCI-H1666; first compound 0.02 µM,0.521
same,relative viability,NCI-H520; first compound 0.0002 µM,0.565
same,relative viability,NCI-H520; first compound 0.000632 µM,0.711
same,relative viability,NCI-H520; first compound 0.002 µM,0.243
same,relative viability,NCI-H520; first compound 0.006325 µM,0.206
same,relative viability,NCI-H520; first compound 0.02 µM,0.119
same,relative viability,NCI-H522; first compound 0.0002 µM,0.79
same,relative viability,NCI-H522; first compound 0.000632 µM,0.723
same,relative viability,NCI-H522; first compound 0.002 µM,0.676
same,relative viability,NCI-H522; first compound 0.006325 µM,0.42
same,relative viability,NCI-H522; first compound 0.02 µM,0.389
COc1cc2nccc(Oc3ccc(NC(=O)Nc4cc(C)on4)c(Cl)c3)c2cc1OC [Tivozanib] + CC(=O)c1c(C)c2cnc(Nc3ccc(N4CCNCC4)cn3)nc2n(C2CCCC2)c1=O [Palbociclib] (partner 0.5 µM),relative viability,COR-L 105; first compound 0.005 µM,0.411
same,relative viability,COR-L 105; first compound 0.01581 µM,0.436
same,relative viability,COR-L 105; first compound 0.05 µM,0.433
same,relative viability,COR-L 105; first compound 0.1581 µM,0.404
same,relative viability,COR-L 105; first compound 0.5 µM,0.415
same,relative viability,LCLC-103H; first compound 0.005 µM,0.452
same,relative viability,LCLC-103H; first compound 0.01581 µM,0.512
same,relative viability,LCLC-103H; first compound 0.05 µM,0.519
same,relative viability,LCLC-103H; first compound 0.1581 µM,0.551
same,relative viability,LCLC-103H; first compound 0.5 µM,0.471
same,relative viability,LK-2; first compound 0.005 µM,0.664
same,relative viability,LK-2; first compound 0.01581 µM,0.674
same,relative viability,LK-2; first compound 0.05 µM,0.503
same,relative viability,LK-2; first compound 0.1581 µM,0.875
same,relative viability,LK-2; first compound 0.5 µM,0.742
same,relative viability,NCI-H1355; first compound 0.005 µM,0.401
same,relative viability,NCI-H1355; first compound 0.01581 µM,0.447
same,relative viability,NCI-H1355; first compound 0.05 µM,0.445
same,relative viability,NCI-H1355; first compound 0.1581 µM,0.326
same,relative viability,NCI-H1355; first compound 0.5 µM,0.417
same,relative viability,NCI-H1648; first compound 0.005 µM,0.31
same,relative viability,NCI-H1648; first compound 0.01581 µM,0.272
same,relative viability,NCI-H1648; first compound 0.05 µM,0.269
same,relative viability,NCI-H1648; first compound 0.1581 µM,0.244
same,relative viability,NCI-H1648; first compound 0.5 µM,0.231
same,relative viability,NCI-H1666; first compound 0.005 µM,0.628
same,relative viability,NCI-H1666; first compound 0.01581 µM,0.666
same,relative viability,NCI-H1666; first compound 0.05 µM,0.639
same,relative viability,NCI-H1666; first compound 0.1581 µM,0.668
same,relative viability,NCI-H1666; first compound 0.5 µM,0.642
same,relative viability,NCI-H520; first compound 0.005 µM,0.231
same,relative viability,NCI-H520; first compound 0.01581 µM,0.296
same,relative viability,NCI-H520; first compound 0.05 µM,0.238
same,relative viability,NCI-H520; first compound 0.1581 µM,0.19
same,relative viability,NCI-H520; first compound 0.5 µM,0.231
same,relative viability,NCI-H522; first compound 0.005 µM,1
same,relative viability,NCI-H522; first compound 0.01581 µM,0.849
same,relative viability,NCI-H522; first compound 0.05 µM,0.889
same,relative viability,NCI-H522; first compound 0.1581 µM,0.894
same,relative viability,NCI-H522; first compound 0.5 µM,1.21
